# Source: patent publication US10934296B2, “4-imidazopyridazin-1-yl-benzamides as Btk inhibitors” (Merck Sharp & Dohme B.V., priority 2011, dated 2021)
# Target: Btk enzyme (His-Btk) (Homo sapiens (Human), UniProt Q06187)
# Experiment: Btk enzyme activity, IMAP fluorescence polarization assay
# Conditions: 60 min pre-incubation, 5 μM ATP, bin bounds in nM
# Btk enzyme (His-Btk), sequence (Q06187 whole entry): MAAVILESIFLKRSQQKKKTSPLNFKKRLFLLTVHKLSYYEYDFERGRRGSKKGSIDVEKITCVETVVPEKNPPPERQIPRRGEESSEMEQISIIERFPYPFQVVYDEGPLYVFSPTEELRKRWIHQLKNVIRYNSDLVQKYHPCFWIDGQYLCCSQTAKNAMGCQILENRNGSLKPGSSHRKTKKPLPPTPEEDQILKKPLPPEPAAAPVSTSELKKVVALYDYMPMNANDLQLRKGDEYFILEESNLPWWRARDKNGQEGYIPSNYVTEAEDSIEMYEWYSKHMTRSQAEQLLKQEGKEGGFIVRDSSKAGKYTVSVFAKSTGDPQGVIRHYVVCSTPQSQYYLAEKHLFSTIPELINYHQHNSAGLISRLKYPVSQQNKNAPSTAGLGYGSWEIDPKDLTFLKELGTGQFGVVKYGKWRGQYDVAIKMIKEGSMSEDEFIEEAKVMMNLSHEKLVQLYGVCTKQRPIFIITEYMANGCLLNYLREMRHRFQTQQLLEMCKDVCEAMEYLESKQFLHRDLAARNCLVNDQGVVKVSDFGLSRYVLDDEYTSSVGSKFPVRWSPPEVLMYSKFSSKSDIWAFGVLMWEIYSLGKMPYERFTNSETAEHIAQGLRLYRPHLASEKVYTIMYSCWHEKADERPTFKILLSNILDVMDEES
row,SMILES,EC50 Btk activity values [nM]
1,"COCC#CC(=O)N1CCC[C@H]1c1nc(-c2ccc(C(=O)Nc3ccccn3)cc2)c2c(N)nccn12 [Example 41, (S)-4-(8-Amino-3-(1-(4-methoxybut-2-ynoyl)pyrrolidin-2-yl)imidazo[1,5-a]pyrazin-1-yl)-N-(pyridin-2-yl)benzamide]",<100
2,"C[C@H](NC(=O)c1ccnc(Cl)n1)c1nc(-c2ccc(C(=O)Nc3ccccn3)cc2)c2c(N)nccn12 [Example 105, (S)-N-(1-(8-amino-1-(4-(pyridin-2-ylcarbamoyl)phenyl)imidazo[1,5-a]pyrazin-3-yl)ethyl)-2-chloropyrimidine-4-carboxamide]",<100
3,"Cc1cc(C(=O)Nc2ccccn2)ccc1-c1nc([C@@H]2CCCCN2C(=O)c2ccnc(Cl)n2)n2ccnc(N)c12 [Example 56, 4-(8-amino-3-((S)-1-(2-chloropyrimidine-4-carbonyl)piperidin-2-yl)imidazo[1,5-a]pyrazin-1-yl)-3-methyl-N-(pyridin-2-yl)benzamide]",<100
4,"CC#CC(=O)N1CCC[C@H]1c1nc(-c2ccc(C(=O)Nc3ccccn3)c(OC)c2)c2c(N)nccn12 [Example 99, (S)-4-(8-amino-3-(1-but-2-ynoylpyrrolidin-2-yl)imidazo[1,5-a]pyrazin-1-yl)-2-methoxy-N-(pyridin-2-yl)benzamide]",<100
5,"CC#CC(=O)N1CCC[C@H]1c1nc(-c2ccc(C(=O)Nc3cc(N4CCCC4)ccn3)cc2)c2c(N)nccn12 [Example 96, (S)-4-(8-amino-3-(1-but-2-ynoylpyrrolidin-2-yl)imidazo[1,5-a]pyrazin-1-yl)-N-(4-(pyrrolidin-1-yl)pyridin-2-yl)benzamide]",<100
6,"COC/C=C/C(=O)N1CCC[C@H]1c1nc(-c2ccc(C(=O)Nc3ccccn3)cc2)c2c(N)nccn12 [Example 4, (S,E)-4-(8-amino-3-(1-(4-methoxybut-2-enoyl)pyrrolidin-2-yl)imidazo[1,5-a]pyrazin-1-yl)-N-(pyridin-2-yl)benzamide]",<100
7,"Nc1nccn2c([C@@H]3CCCN3C(=O)c3ccnc(Cl)n3)nc(-c3ccc(C(=O)Nc4cc(C(F)(F)F)ccn4)cc3)c12 [Example 119, (S)-4-(8-amino-3-(1-(2-chloropyrimidine-4-carbonyl)pyrrolidin-2-yl)imidazo[1,5-a]pyrazin-1-yl)-N-(4-(trifluoromethyl)pyridin-2-yl)benzamide]",<100
8,"COC/C=C/C(=O)N1CCC[C@H]1c1nc(-c2ccc(C(=O)Nc3nc4c(s3)CCCC4)cc2)c2c(N)nccn12 [Example 82, (S,E)-4-(8-amino-3-(1-(4-methoxybut-2-enoyl)pyrrolidin-2-yl)imidazo[1,5-a]pyrazin-1-yl)-N-(4,5,6,7-tetrahydrobenzo[d]thiazol-2-yl)benzamide]",<100
9,"CC#CC(=O)N1CCC[C@H]1c1nc(-c2ccc(C(=O)Nc3cc(F)ccn3)cc2)c2c(N)nccn12 [Example 106, (S)-4-(8-amino-3-(1-but-2-ynoylpyrrolidin-2-yl)imidazo[1,5-a]pyrazin-1-yl)-N-(4-fluoropyridin-2-yl)benzamide]",<100
10,"COC/C=C/C(=O)N1CCC[C@H]1c1nc(-c2ccc(C(=O)Nc3cc(C)ccn3)cc2)c2c(N)nccn12 [Example 57, (S,E)-4-(8-amino-3-(1-(4-methoxybut-2-enoyl)pyrrolidin-2-yl)imidazo[1,5-a]pyrazin-1-yl)-N-(4-methylpyridin-2-yl)benzamide]",<100
11,"CC(C)c1ccnc(NC(=O)c2ccc(-c3nc([C@@H]4CCCN4C(=O)c4ccnc(Cl)n4)n4ccnc(N)c34)cc2)c1 [Example 70, (S)-4-(8-amino-3-(1-(2-chloropyrimidine-4-carbonyl)pyrrolidin-2-yl)imidazo[1,5-a]pyrazin-1-yl)-N-(4-isopropylpyridin-2-yl)benzamide]",<100
12,"COC/C=C/C(=O)N1CCC[C@H]1c1nc(-c2ccc(C(=O)Nc3cc(C(C)C)ccn3)cc2)c2c(N)nccn12 [Example 58, (S,E)-4-(8-amino-3-(1-(4-methoxybut-2-enoyl)pyrrolidin-2-yl)imidazo[1,5-a]pyrazin-1-yl)-N-(4-isopropylpyridin-2-yl)benzamide]",<100
13,"COC/C=C/C(=O)N1CCC[C@H]1c1nc(-c2ccc(C(=O)Nc3cc(C#N)ccn3)cc2)c2c(N)nccn12 [Example 98, (S,E)-4-(8-amino-3-(1-(4-methoxybut-2-enoyl)pyrrolidin-2-yl)imidazo[1,5-a]pyrazin-1-yl)-N-(4-cyanopyridin-2-yl)benzamide]",<100
14,"COC/C=C/C(=O)NCc1nc(-c2ccc(C(=O)Nc3ccccn3)cc2)c2c(N)nccn12 [Example 95, (E)-4-(8-amino-3-((4-methoxybut-2-enamido)methyl)imidazo[1,5-a]pyrazin-1-yl)-N-(pyridin-2-yl)benzamide]",<100
15,"CC#CC(=O)N(C)[C@@H](C)c1nc(-c2ccc(C(=O)Nc3cc(CCC)ccn3)cc2)c2c(N)nccn12 [Example 113, (S)-4-(8-amino-3-(1-(N-methylbut-2-ynamido)ethyl)imidazo[1,5-a]pyrazin-1-yl)-N-(4-propylpyridin-2-yl)benzamide]",<100
16,"CC#CC(=O)N1CCCC[C@H]1c1nc(-c2ccc(C(=O)Nc3ccon3)cc2)c2c(N)nccn12 [Example 24, (S)-4-(8-Amino-3-(1-but-2-ynoylpiperidin-2-yl)imidazo[1,5-a]pyrazin-1-yl)-N-(isoxazol-3-yl)benzamide]",<100
17,"COC/C=C/C(=O)N1CCC[C@H]1c1nc(-c2ccc(C(=O)Nc3cc(OC)ccn3)cc2)c2c(N)nccn12 [Example 51, (S,E)-4-(8-amino-3-(1-(4-methoxybut-2-enoyl)pyrrolidin-2-yl)imidazo[1,5-a]pyrazin-1-yl)-N-(4-methoxypyridin-2-yl)benzamide]",<100
18,"Nc1nccn2c([C@@H]3CCCN3C(=O)c3ccnc(Cl)n3)nc(-c3ccc(C(=O)Nc4ccccn4)cc3)c12 [Example 5, (S)-4-(8-amino-3-(1-(2-chloropyrimidine-4-carbonyl)pyrrolidin-2-yl)imidazo[1,5-a]pyrazin-1-yl)-N-(pyridin-2-yl)benzamide]",<100
19,"Nc1nccn2c([C@@H]3CCCCN3C(=O)c3ccnc(Cl)n3)nc(-c3ccc(C(=O)Nc4cc(F)ccn4)cc3)c12 [Example 80, (S)-4-(8-amino-3-(1-(2-chloropyrimidine-4-carbonyl)piperidin-2-yl)imidazo[1,5-a]pyrazin-1-yl)-N-(4-fluoropyridin-2-yl)benzamide]",<100
20,"CN(C)CC#CC(=O)N1CCC[C@H]1c1nc(-c2ccc(C(=O)Nc3ccccn3)cc2)c2c(N)nccn12 [Example 40, (S)-4-(8-Amino-3-(1-(4-(dimethylamino)but-2-ynoyl)pyrrolidin-2-yl)imidazo[1,5-a]pyrazin-1-yl)-N-(pyridin-2-yl)benzamide]",<100
21,"Nc1nccn2c([C@@H]3CCCN3C(=O)/C=C/CN3CCCC3)nc(-c3ccc(C(=O)Nc4ccccn4)cc3)c12 [Example 2, (S,E)-4-(8-amino-3-(1-(4-(pyrrolidin-1-yl)but-2-enoyl)pyrrolidin-2-yl)imidazo[1,5-a]pyrazin-1-yl)-N-(pyridin-2-yl)benzamide]",<100
22,"CN(C)C/C=C/C(=O)N1CCCC[C@H]1c1nc(-c2ccc(C(=O)Nc3cccnn3)cc2)c2c(N)nccn12 [Example 73, (S,E)-4-(8-amino-3-(1-(4-(dimethylamino)but-2-enoyl)piperidin-2-yl)imidazo[1,5-a]pyrazin-1-yl)-N-(pyridazin-3-yl)benzamide]",<100

# Same assay, conditions: 60 min pre-incubation, 5 μM ATP, bin bounds in μM
row,SMILES,EC50 Btk activity values [nM]
1,"COC/C=C/C(=O)N1CCCC[C@H]1c1nc(-c2ccc(C(=O)Nc3nccc(C)n3)cc2)c2c(N)nccn12 [Example 88, (S,E)-4-(8-amino-3-(1-(4-methoxybut-2-enoyl)piperidin-2-yl)imidazo[1,5-a]pyrazin-1-yl)-N-(4-methylpyrimidin-2-yl)benzamide]",<1000
2,"COC/C=C/C(=O)N1CCCC[C@H]1c1nc(-c2ccc(C(=O)Nc3ccncn3)cc2)c2c(N)nccn12 [Example 86, (S,E)-4-(8-amino-3-(1-(4-methoxybut-2-enoyl)piperidin-2-yl)imidazo[1,5-a]pyrazin-1-yl)-N-(pyrimidin-4-yl)benzamide]",<1000
3,"COC/C=C/C(=O)N1CCCC[C@H]1c1nc(-c2ccc(C(=O)Nc3ncccn3)cc2)c2c(N)nccn12 [Example 55, (S,E)-4-(8-amino-3-(1-(4-methoxybut-2-enoyl)piperidin-2-yl)imidazo[1,5-a]pyrazin-1-yl)-N-(pyrimidin-2-yl)benzamide]",<1000
4,"N#CCN1CCC[C@H]1c1nc(-c2ccc(C(=O)Nc3ccccn3)cc2)c2c(N)nccn12 [Example 94, (S)-4-(8-amino-3-(1-(cyanomethyl)pyrrolidin-2-yl)imidazo[1,5-a]pyrazin-1-yl)-N-(pyridin-2-yl)benzamide]",<1000
5,"COC/C=C/C(=O)N1CCCC[C@H]1c1nc(-c2ccc(C(=O)Nc3ccccn3)cc2C)c2c(N)nccn12 [Example 85, 4-(8-amino-3-((S)-1-((E)-4-methoxybut-2-enoyl)piperidin-2-yl)imidazo[1,5-a]pyrazin-1-yl)-3-methyl-N-(pyridin-2-yl)benzamide]",<1000
6,"C=C(C(=O)N1CCC[C@H]1c1nc(-c2ccc(C(=O)Nc3ccccn3)cc2)c2c(N)nccn12)C(F)(F)F [Example 92, (S)-4-(8-amino-3-(1-(2-(trifluoromethyl)acryloyl)pyrrolidin-2-yl)imidazo[1,5-a]pyrazin-1-yl)-N-(pyridin-2-yl)benzamide]",<1000
7,"COC/C=C/C(=O)N1CCCC[C@H]1c1nc(-c2ccc(C(=O)Nc3cccnn3)cc2)c2c(N)nccn12 [Example 72, (S,E)-4-(8-amino-3-(1-(4-methoxybut-2-enoyl)piperidin-2-yl)imidazo[1,5-a]pyrazin-1-yl)-N-(pyridazin-3-yl)benzamide]",<1000
